Laboratory results from patent publication EP0263213B1, “C20 Through C26 amino steroids” (THE UPJOHN COMPANY, priority 1986, dated 1988).

Columns and labels:
chick embryo = test: fertile egg or chick embryo assay of Folkman (angiogenesis); format: in vivo; conditions: 50 »g/10 »l in the presence of heparin
Source text: According to this procedure compounds which are considered to be "active" (i.e. antiangiogenic) give an avascular zone of 4 mm or greater in some embryos when tested at 50 »g/10 »l in the presence of 50 »g/10 » of heparin.

arachidonic acid = test: Arachidonic Acid Antagonism Assay (AAAA); format: in vivo; conditions: active = elevates the LD50 of sodium arachidonate outside the 95% confidence interval of the control LD50; test compound IV 15 minutes before; male CF-1 mice
Method: Since these metabolites contribute to the pathological problems associated with stroke, spinal trauma and head injury, compounds which antagonize arachidonic acid are useful in treating stroke, spinal trauma and head injury.
While not necessary to determine arachidonic acid antagonism, the above assay has been modified as follows: Charles River male CF-1 mice weighing 18-22g are treated IV with the test compound dissolved in 1.0% Tween-80 and 0.1% hydrochloric acid in distilled water, 0.2 ml total volume. Fifteen minutes later sodium arachidonate (90% pure) in physiological (normal) saline is injected into the tail vein. The LD₅₀ is measured using the Spearman-Karber method with a log dose interval of 0.05 (N=6). Compounds which elevate the LD₅₀ outside of the 95% confidence interval of the control LD₅₀ are considered to be "active".

mucous secretion = test: inhibition of mucous secretion assay of Johnson; conditions: active = inhibits or blocks enhancement of induced mucous secretions
Source text: The inhibition of mucous secretion assay of Johnson Int. […] According to this procedure compounds which inhibit or block enhancement of induced mucous secretions when tested are considered to be "active".

rat brain synaptosomes [1] = test: Conjugated Diene Formation Assay; format: biochemical; conditions: active = inhibits conjugated diene formation by 50% or more; 100 »M (or less) of drug, 100 »M hydrogen peroxide, 200 »M ferrous ammonium sulfate
Source text: The formation of conjugated dienes as assayed by Braughler, J. Neurochem., 44, 1282 (1985), Bucher, Fund. Applied Tox., 3, 222 (1983) and Tein, Arch. Biochem. Biophy., 216, 142 (1982) is a standard pharmacological laboratory procedure useful for identifying compounds which inhibit lipid peroxidation. Since lipid peroxidation is involved in the pathophysiology of central nervous system trauma, compounds which inhibit conjugated diene formation are useful in treating the conditions listed below.
44, 1282 (1985). Synaptosomal suspension (10 »l) is added to 1 ml of physiological (normal) saline containing 1 % Lubrol PX (Sigma Chemical Co. St. Louis, Mo.), 100 »M hydrogen peroxide and 100 »M (or less) of the drug to be tested prepared in either absolute ethanol or water depending upon solubility. The reaction is started by the rapid addition of 200 »M ferrous ammonium sulfate is prepared in argon-purged water. The sample is rapidly mixed and the change in absorbance at 232nm is followied in a Gilford Response Spectrophotometer equipped with a rapid sampler. Due to the rapidity of the reaction, rapid addition of the iron, rapid mixing and sampling are obligatory to the accuracy of the assay. For best results absorbance readings of one/sec should be started within 5 sec following the addition of iron. The initial linear rate of absorbance change during the first 30 sec of reaction are compared with the rate of a reaction containing all reagents except synaptosomes. The difference in rates is the rate of conjugated diene formation. Rates with drug are compared to rates obtained in the absence of drug and the % inhibition is calculated. A compound that inhibits conjugated diene formation by 50% or more is considered to be "active".

ACAT = test: AcylCoA:Cholesterol Acyltransferase (ACAT) Inhibition Assay; format: cell-based; conditions: for inhibiting ACAT: active = inhibits ACAT activity equal to, or greater than, that of chlorpromazine
Source text: ACAT esterifies arterial cholesterol which is a key reaction in the development of atherosclerosis. The procedure of Bell, Can. […] In the ACAT assay it is preferred to use Fu5AH cells, see Lipids 9, 526 (1974). According to this procedure, compounds which inhibit ACAT activity equal to, or greater than, that of chlorpromazine are considered "active".

SEA Japanese Quail = test: Antiatherosclerosis Screen in SEA Japanese Quail; format: in vivo; conditions: quail fed an atherogenic diet; active = decrease of serum or arterial cholesterol > 30 %
[2] = system: aspirin/cold induced ulcer; test: aspirin/cold induced ulcer assay of Rainsford; format: in vivo; conditions: active = 50% or more reduction of ulcer index
Source text: According to this procedure compounds which give a 50% or more reduction of ulcer index are considered to be "active".

mouse head injury = test: in vivo mouse head injury procedure of Hall (1 hr post-injury grip test); conditions: 1 hr after head injury, statistically significant (p < 0.05)
interleukin-1 = test: inhibition of interleukin-1 induced T cell proliferation assay; format: cell-based; conditions: for % Inhibition at 10⁻⁶ M: interleukin-1 induced T cell proliferation
Source text: The inhibition of interleukin-1 induced T cell proliferation assay, Proc. Nat. […] Since people with arthritis make excess interleukin 1, compounds which inhibit the activity of interleukin 1 are useful in the treatment of arthritis. According to this procedure compounds which inhibit the activity of interleukin 1 greater that 30% at 10⁻⁶ M are considered to be "active".

rat brain synaptosomes [3] = test: Malonyldialdehyde (MDA) Formation Assay; format: biochemical; conditions: active = inhibits MDA formation by 50% or more at 200»M or less; 10 min at 37°, pH 7.0, 150 uM Fe+++ and 50 uM Fe++
Method: Since lipid peroxidation is involved in the pathophysiology of central nervous system trauma, compounds which inhibit MDA formation are useful in treating the conditions listed below.
While not necessary to determine MDA formation, the above assays have been modified as follows: rat brain synaptosomes are prepared as described in the Example about the conjugated diene assay, except that the final wash of the synaptosomes and final suspension are in physiological (normal) saline in which the pH has been adjusted to 7.0. The synaptosomes are incubated for 10 min at 37° in physiological (normal) saline pH 7.0 (total volume = 100 ul) containing; 10 ul synaptosomal suspension, 10% DMSO plus or minus drug, 150 uM Fe⁺⁺⁺ and 50 uM Fe++. The incubation is started by the rapid addition of iron to the otherwise complete reaction. The iron solutions are prepared fresh as ferric chloride and ferrous ammonium sulfate in argon-purged water. Following the 10 min incubation, the reaction is stopped by the addition of 500 ul ice-cold 12% trichloroacetic acid prepared in 0.5 N hydrochoric acid. Water (300 ul) is then added along with 100 ul of freshly prepared thiobarbituric acid (3.3% in 0.5N sodium hydroxide) and 10 ul of 5mM desferrioxamine. The sample is then heated in a boiling water bath for 20 minutes. The samples are cooled and centrifuged for 15 minutes at 1500 xg and the absorbance of the supernatant fraction is read at 532 nm. The % inhibition of MDA formation is calculated by dividing the absorbance of sample containing drug by the absorbance of samples incubated without drug. Reaction blanks are samples incubated in the absence of iron. A compound that inhibits MDA formation by 50% or more at a concentration of 200»M or less is considered "active".

## 11α,17α-Dihydroxy-21-[4-(2-pyridinyl)-1-piperazinyl]pregn-4-ene-3,20-dione 11-(3,3-dimethyl-1-butyrate dihydrochloride [Example 28]
Chick embryo
  % of Embryos with 4 mm or Greater Avascular Zone: 73%

## CS(=O)(=O)O.C[C@]12CCC(=O)C=C1CC[C@@H]1C2=CC[C@@]2(C)[C@H]1CC[C@]2(O)C(=O)CN1CCN(c2ccccn2)CC1 [Example 2, 17α-Hydroxy-21-[4-(2-pyridinyl)-1-piperazinyl]pregna-4,9(11)-diene-3,20-dione methanesulfonate]
Arachidonic acid
  arachidonic acid antagonism: demonstrate arachidonic acid antagonism
Mucous secretion; methanesulfonate
  inhibition of mucous secretion: preferred mucous inhibitors
Rat brain synaptosomes [1]
  inhibition of conjugated diene formation: demonstrate such activity by inhibition of conjugated dienes

## C[C@]12CCC(=O)C=C1CC[C@@H]1C2=CC[C@@]2(C)[C@H]1CC[C@]2(O)C(=O)CN1CCN(c2ccccn2)CC1.Cl [Example 3, 17α-Hydroxy-21-[4-(2-pyridinyl)-1-piperazinyl]pregna-4,9(11)-diene-3,20-dione hydrogen chloride salt]
ACAT
  % Inhibition of ACAT (5 »g/ml): 63.9%
  inhibiting ACAT: active in inhibiting ACAT
SEA Japanese Quail
  reduction of serum and arterial cholesterol: demonstrates reduction of serum and arterial cholesterol

## CN(C)c1cc(N2CCN(CC(=O)[C@@]3(O)CC[C@H]4[C@@H]5CCC6=CC(=O)CC[C@]6(C)C5=CC[C@@]43C)CC2)nc(N(C)C)n1.Cl.Cl.O [Example 16, 17α-Hydroxy-21-[4-[2,6-bis(dimethylamino)-4-pyrimidinyl]-1-piperazinyl]pregna-4,9(11)-diene-3,20-dione dihydrochloride hydrate]
Mucous secretion
  inhibition of mucous secretion: demonstrate such activity
[2]
  anti-ulcer activity: demonstrates anti-ulcer activity
Chick embryo
  % of Embryos with 4 mm or Greater Avascular Zone: 91%

## CCN(CC)c1cc(N2CCN(CC(=O)[C@@]3(O)[C@H](C)C[C@H]4[C@@H]5CCC6=CC(=O)C=C[C@]6(C)C5=CC[C@@]43C)CC2)nc(N(CC)CC)n1.Cl.O [Example 18, 21-[4-[2,6-Bis(diethylamino)-4-pyrimidinyl]-1-piperazinyl]-17α-hydroxy-16α-methylpregna-1,4,9(11)-triene-3,20-dione hydrochloride hydrate]
Mouse head injury
  % Increase in 1 hr Post-Injury Grip Test Scores After 3 mg/kg: 112.6%
ACAT
  % Inhibition of ACAT (5 »g/ml): 48.4%
  inhibiting ACAT: active in inhibiting ACAT

## CS(=O)(=O)O.CS(=O)(=O)O.C[C@@H]1C[C@H]2[C@@H]3CCC4=CC(=O)C=C[C@]4(C)C3=CC[C@]2(C)[C@H]1C(=O)CN1CCN(c2cc(N3CCCC3)nc(N3CCCC3)n2)CC1 [Example 83, 16α-Methyl-21-[4-[2,6-bis(pyrrolidino)-4-pyrimidyl]-1-piperazinyl]pregna-1,4,9(11)-triene-3,20-dione dimethane-sulfonate]
Mucous secretion
  inhibition of mucous secretion: preferred mucous inhibitors
Mouse head injury
  % Increase in 1 hr Post-Injury Grip Test Scores After 3 mg/kg: 134.5%
interleukin-1
  % Inhibition at 10⁻⁶ M: 62%
Rat brain synaptosomes [3]
  inhibition of MDA formation: demonstrate such activity by inhibition of MDA formation
Rat brain synaptosomes [1]
  inhibition of conjugated diene formation: demonstrate such activity by inhibition of conjugated dienes

## C[C@@H]1C[C@H]2[C@@H]3CCC4=CC(=O)C=C[C@]4(C)C3=CC[C@]2(C)[C@H]1C(=O)CN1CCN(c2cc(N3CCOCC3)nc(N3CCOCC3)n2)CC1 [Example 86]
interleukin-1
  % Inhibition at 10⁻⁶ M: 84%
Rat brain synaptosomes [3]
  inhibition of MDA formation: demonstrate such activity by inhibition of MDA formation
Rat brain synaptosomes [1]
  inhibition of conjugated diene formation: demonstrate such activity by inhibition of conjugated dienes

## C[C@]12CCC(=O)C=C1CC[C@@H]1C2=CC[C@@]2(C)[C@H]1CC[C@]2(O)C(=O)CN1CCN(c2cc(N3CCOCC3)nc(N3CCOCC3)n2)CC1.Cl.Cl.O [Example 105, 21-[4-(2,6-Bis(4-morpholinyl)-4-pyrimidinyl)-1-piperazinyl]-17α-hydroxypregna-4,9(11)-diene-3,20-dione dihydrochloride, hydrate]
Mucous secretion; dihydrochloride, hydrate
  inhibition of mucous secretion: preferred mucous inhibitors
interleukin-1
  % Inhibition at 10⁻⁶ M: 76%

## CCN(CC)c1ccc(N2CCN(CC(=O)[C@H]3CC[C@H]4[C@@H]5CCC6=CC(=O)C=C[C@]6(C)[C@H]5CC[C@]34C)CC2)nc1N(CC)CC.Cl.Cl [Example 120]
interleukin-1
  % Inhibition at 10⁻⁶ M: 56%
interleukin-1; active = inhibits the activity of interleukin 1 greater than 30% at 10⁻⁶ M
  inhibition of interleukin 1: demonstrate inhibition of interleukin 1
Rat brain synaptosomes [3]
  inhibition of MDA formation: demonstrate such activity by inhibition of MDA formation
